According to the NIST ThermoML archive (doi:10.1016/j.tca.2014.10.002):
“And” between values parts separate entries of the source, which are not always exact repeats. Equal entries are not always repeated.

Key:
[1] = molar heat capacity at constant pressure; details: 101.33 kPa, Large sample (1 g) DSC
[2] = Crystal; DTA
[3] = Molar enthalpy of transition or fusion; details: Crystal; DSC

OC1CCCC1 [cyclopentanol]
[1], Liquid
Details	molar heat capacity at constant pressure
265.06 K	157.6 J/K/mol
270 K	160.7 J/K/mol
275 K	164.2 J/K/mol
280 K	167.8 J/K/mol and 167.9 J/K/mol
285 K	171.6 J/K/mol and 171.7 J/K/mol
290 K	175.7 J/K/mol and 175.9 J/K/mol
295 K	180 J/K/mol and 180.1 J/K/mol
300 K	184.3 J/K/mol and 184.4 J/K/mol
305 K	188.6 J/K/mol and 188.7 J/K/mol
310 K	193 J/K/mol and 193.1 J/K/mol
315 K	197.4 J/K/mol and 197.6 J/K/mol
320 K	201.8 J/K/mol and 202 J/K/mol
325 K	206.2 J/K/mol and 206.4 J/K/mol
330 K	210.5 J/K/mol and 210.7 J/K/mol
335 K	215 J/K/mol and 215.1 J/K/mol
340 K	219.5 J/K/mol
345 K	223.8 J/K/mol and 223.7 J/K/mol
350 K	228.1 J/K/mol and 228 J/K/mol
354.91 K	232 J/K/mol
355 K	232 J/K/mol
357.78 K	234.1 J/K/mol

OC1CCCCCC1 [cycloheptanol]
[1]
Details	molar heat capacity at constant pressure
260.59 K, Crystal	195.3 J/K/mol
260.73 K, Crystal	195.4 J/K/mol
262 K, Crystal	196.4 J/K/mol and 196.5 J/K/mol
264 K, Crystal	198 J/K/mol and 198.1 J/K/mol
266 K, Crystal	199.8 J/K/mol
268 K, Crystal	201.8 J/K/mol and 201.7 J/K/mol
270 K, Crystal	204 J/K/mol
271.34 K, Crystal	205.2 J/K/mol
271.43 K, Crystal	205.4 J/K/mol
286.01 K, Liquid	236.1 J/K/mol
286.13 K, Liquid	236.3 J/K/mol
290 K, Liquid	240.6 J/K/mol
295 K, Liquid	246.5 J/K/mol
300 K, Liquid	252.3 J/K/mol
305 K, Liquid	258.1 J/K/mol and 258.2 J/K/mol
310 K, Liquid	263.8 J/K/mol
315 K, Liquid	269.4 J/K/mol and 269.5 J/K/mol
320 K, Liquid	274.8 J/K/mol and 274.9 J/K/mol
325 K, Liquid	280.3 J/K/mol and 280.2 J/K/mol
330 K, Liquid	285.3 J/K/mol and 285.2 J/K/mol
335 K, Liquid	289.9 J/K/mol and 290 J/K/mol
340 K, Liquid	294.4 J/K/mol
345 K, Liquid	299.2 J/K/mol
350 K, Liquid	303.6 J/K/mol
354.82 K, Liquid	307.6 J/K/mol
355 K, Liquid	307.7 J/K/mol
357.82 K, Liquid	309.7 J/K/mol

OC1CCCCC1 [cyclohexanol]
[1]
Details	molar heat capacity at constant pressure
261.42 K, Crystal	162.6 J/K/mol
261.48 K, Crystal	162.8 J/K/mol
264 K, Crystal	164.5 J/K/mol and 164.7 J/K/mol
267 K, Crystal	166.8 J/K/mol and 167 J/K/mol
270 K, Crystal	169.1 J/K/mol and 169.4 J/K/mol
273 K, Crystal	171.7 J/K/mol and 172 J/K/mol
276 K, Crystal	174.5 J/K/mol and 174.9 J/K/mol
279 K, Crystal	177.4 J/K/mol and 177.9 J/K/mol
282 K, Crystal	180.8 J/K/mol and 181.4 J/K/mol
284.5 K, Crystal	184.9 J/K/mol
284.95 K, Crystal	184.8 J/K/mol
305.05 K, Liquid	218.3 J/K/mol
305.18 K, Liquid	218.6 J/K/mol
310 K, Liquid	223.8 J/K/mol and 224 J/K/mol
315 K, Liquid	229.6 J/K/mol and 229.7 J/K/mol
320 K, Liquid	235.5 J/K/mol and 235.3 J/K/mol
325 K, Liquid	241.3 J/K/mol and 241.1 J/K/mol
330 K, Liquid	246.7 J/K/mol and 246.8 J/K/mol
335 K, Liquid	252 J/K/mol and 252.2 J/K/mol
340 K, Liquid	257.4 J/K/mol and 257.6 J/K/mol
345 K, Liquid	262.8 J/K/mol and 263 J/K/mol
350 K, Liquid	268 J/K/mol
355 K, Liquid	272.3 J/K/mol and 272.5 J/K/mol
357.82 K, Liquid	274.7 J/K/mol
357.94 K, Liquid	274.7 J/K/mol

OC1CCC1 [cyclobutanol]
Details	Molar enthalpy of transition or fusion [kcal/mol]	Normal melting temperature [°C]
[2]	–	-45.61
[3]	1.89	–

[1], Liquid
Details	molar heat capacity at constant pressure
258.09 K	132.4 J/K/mol and 132.7 J/K/mol
263.2 K	134.8 J/K/mol and 134.7 J/K/mol
268.3 K	137 J/K/mol and 137.2 J/K/mol
273.41 K	139.4 J/K/mol
278.51 K	141.8 J/K/mol
283.62 K	144.6 J/K/mol and 144.4 J/K/mol
288.72 K	147.4 J/K/mol and 147.3 J/K/mol
293.83 K	150.5 J/K/mol and 150.2 J/K/mol
298.93 K	153.7 J/K/mol and 153.8 J/K/mol
304.04 K	157 J/K/mol and 157.1 J/K/mol
309.14 K	160.5 J/K/mol
314.25 K	164.1 J/K/mol and 164 J/K/mol
319.35 K	168 J/K/mol and 167.9 J/K/mol
324.46 K	171.9 J/K/mol and 171.6 J/K/mol
329.57 K	175.4 J/K/mol
334.67 K	179.4 J/K/mol
339.77 K	183.6 J/K/mol and 183.1 J/K/mol
344.88 K	187.5 J/K/mol and 187 J/K/mol
349.98 K	191.6 J/K/mol
355.09 K	195.6 J/K/mol
